Earlier results in patent US12404348B2, “Bifunctional chimeric molecules for labeling of kinases with target binding moieties and methods of use thereof” (The Brigham and Women's Hospital, Inc., priority 2021, dated 2025).
pIC50, pKd: −log10 of the molar value. Read-outs that look alike come from different tables or passages of the source. Values belong to the compound of their own block, whether it stands above or below them.

Legend:
AKT1 [1] = target: T1, AKT1 (Homo sapiens, UniProt P31749)
AKT1 [2] = target: T1, AKT1; remark: listed apart in the source
PDK1 [3] = target: T2, PDK1 (Homo sapiens, UniProt O15530)
T2 sequence (O15530 1-556): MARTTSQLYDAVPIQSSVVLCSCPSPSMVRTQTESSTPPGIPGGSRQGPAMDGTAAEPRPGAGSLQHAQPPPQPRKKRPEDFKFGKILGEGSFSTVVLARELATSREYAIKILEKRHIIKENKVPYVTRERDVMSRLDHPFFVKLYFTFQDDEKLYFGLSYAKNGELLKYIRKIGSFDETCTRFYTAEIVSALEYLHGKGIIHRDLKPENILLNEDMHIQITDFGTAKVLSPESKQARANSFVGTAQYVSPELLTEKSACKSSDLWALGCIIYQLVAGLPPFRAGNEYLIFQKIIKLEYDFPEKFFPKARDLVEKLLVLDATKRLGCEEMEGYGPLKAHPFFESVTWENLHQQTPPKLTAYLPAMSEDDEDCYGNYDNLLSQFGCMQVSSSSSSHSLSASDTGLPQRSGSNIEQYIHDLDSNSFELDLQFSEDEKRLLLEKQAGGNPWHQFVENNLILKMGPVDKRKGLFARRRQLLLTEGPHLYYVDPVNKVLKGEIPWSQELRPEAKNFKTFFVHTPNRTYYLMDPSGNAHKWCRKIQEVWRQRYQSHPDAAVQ

PDK1 [4] = target: T2, PDK1; settings: for pKd: read-out: ITC Kd
[5] = not given; remark: listed apart in the source

T1 sequence (P31749 whole entry): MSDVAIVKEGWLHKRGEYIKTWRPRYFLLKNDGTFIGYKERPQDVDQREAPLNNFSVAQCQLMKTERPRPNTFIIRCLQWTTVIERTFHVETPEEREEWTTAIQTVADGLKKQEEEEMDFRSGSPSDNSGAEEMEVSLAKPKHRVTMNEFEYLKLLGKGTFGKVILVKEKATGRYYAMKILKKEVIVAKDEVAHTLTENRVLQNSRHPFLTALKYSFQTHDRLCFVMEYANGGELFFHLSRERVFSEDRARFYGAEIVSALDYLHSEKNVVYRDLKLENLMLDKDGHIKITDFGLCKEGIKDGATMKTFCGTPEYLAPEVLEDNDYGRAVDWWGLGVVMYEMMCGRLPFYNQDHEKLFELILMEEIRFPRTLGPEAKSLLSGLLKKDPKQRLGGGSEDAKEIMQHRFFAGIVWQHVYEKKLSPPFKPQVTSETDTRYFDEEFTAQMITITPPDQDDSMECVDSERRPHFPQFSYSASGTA

- pIC50 (AKT1 [1]): < 3.52
- Akt1 ΔTm (AKT1 [2]): no shift
SMILES: CC(C)(C)c1cccc(-n2c(-c3cccnc3N)nc3cccnc32)c1 [Compound 3h]

- AC50 (PDK1 [3]): n.e.
- Amax (PDK1 [3]): n.e.
SMILES: O=C(O)/C=C(\CCc1ccc(F)cc1)c1ccccc1 [Compound 4E]

- Amax (PDK1 [3]): 3.3 fold
SMILES: O=C(O)/C=C(/CCc1ccc(F)cc1)c1ccccc1 [Compound 4Z]

- Amax (PDK1 [3]): 3.9 fold
- ITC Ka (PDK1 [4]): 4.78E4 — M^-1
- ITC TΔS (PDK1 [4]): 3.20 kcal/mol
- ITC ΔG (PDK1 [4]): -6.32 kcal/mol
- ITC ΔH (PDK1 [4]): -3.07 kcal/mol
- ITC ΔH/ΔG (PDK1 [4]): 48.6%
SMILES: O=C(O)/C=C(/CCc1ccc(Br)cc1)c1ccccc1 [Compound 5Z]

- Akt1 ΔTm (AKT1 [2]): no shift
SMILES: NCc1ccc(-n2c(-c3cccnc3)nc3cccnc32)cc1 [Compound 5b]

- Akt1 ΔTm (AKT1 [2]): 3.7 °C
SMILES: CC(=O)Nc1ccc(-n2c(-c3cccnc3N)nc3cccnc32)cc1 [Compound 5c]

- Akt1 ΔTm (AKT1 [2]): 4.1 °C
SMILES: Nc1ccc(-n2c(-c3cccnc3N)nc3cccnc32)cc1 [Compound 5d]

- Amax (PDK1 [3]): 4.4 fold
- AC50 (PDK1 [3]; read-out: AC50): 7.1 µM
- ITC Ka (PDK1 [4]): 9.66E4 — M^-1
- ITC TΔS (PDK1 [4]): 4.79 kcal/mol
- ITC ΔG (PDK1 [4]): -6.73 kcal/mol
- ITC ΔH (PDK1 [4]): -1.94 kcal/mol
- ITC ΔH/ΔG (PDK1 [4]): 28.8%
- pKd (PDK1 [4]): 4.98
SMILES: O=C(O)/C=C(/CCc1ccc(C(F)(F)F)cc1)c1ccccc1 [Compound 6Z]

- Amax (PDK1 [3]): 2.4 fold
- AC50 (PDK1 [3]; read-out: AC50): 2.8 µM
- ITC Ka (PDK1 [4]): 7.18E4 — M^-1
- ITC TΔS (PDK1 [4]): 2.80 kcal/mol
- ITC ΔG (PDK1 [4]): -6.56 kcal/mol
- ITC ΔH (PDK1 [4]): -3.71 kcal/mol
- ITC ΔH/ΔG (PDK1 [4]): 56.6%
- pKd (PDK1 [4]): 4.86
SMILES: O=C(O)/C=C(/CCc1ccc(Cl)c(Cl)c1)c1ccccc1 [Compound 7Z]

- AC50 (PDK1 [3]): n.e.
- Amax (PDK1 [3]): n.e.
SMILES: O=C(O)/C=C(\CCc1ccc(Cl)cc1Cl)c1ccccc1 [Compound 8E]

- Amax (PDK1 [3]): 2.1 fold
- AC50 (PDK1 [3]; read-out: AC50): 4.7 µM
- ITC Ka (PDK1 [4]): 1.71E5 — M^-1
- ITC TΔS (PDK1 [4]): 4.93 kcal/mol
- ITC ΔG (PDK1 [4]): -7.07 kcal/mol
- ITC ΔH (PDK1 [4]): -2.08 kcal/mol
- ITC ΔH/ΔG (PDK1 [4]): 29.5%
SMILES: O=C(O)/C=C(/CCc1ccc(Cl)cc1Cl)c1ccccc1 [Compound 8Z]

SMILES: Nc1ncccc1-c1nc2cccnc2n1-c1cccc(CNC(=O)c2ccccc2)c1 [Compound 8g]
- Akt1 ΔTm (AKT1 [2]): no shift

SMILES: Nc1ncccc1-c1nc2cccnc2n1-c1ccc(CNCc2ccccc2)cc1 [Compound 8h]
- Akt1 ΔTm (AKT1 [2]): 4.9 °C

- AC50 (PDK1 [3]): n.e.
- Amax (PDK1 [3]): n.e.
SMILES: CCc1ccc(CC/C(=C\C(=O)O)c2ccccc2)cc1 [Compound 10E]

- Amax (PDK1 [3]): 1.4 fold
- AC50 (PDK1 [3]; read-out: AC50): > 30 µM
SMILES: CCc1ccc(CC/C(=C/C(=O)O)c2ccccc2)cc1 [Compound 10Z]

- Amax (PDK1 [3]): n.e.
SMILES: O=C(O)/C=C(\CCc1ccc(-c2ccccc2)cc1)c1ccccc1 [Compound 11E]

- Amax (PDK1 [3]): 3.2 fold
SMILES: O=C(O)/C=C(/CCc1ccc(-c2ccccc2)cc1)c1ccccc1 [Compound 11Z]

- Amax (PDK1 [3]): 3.5 fold
- ITC Ka (PDK1 [4]): 7.26E4 — M^-1
- ITC TΔS (PDK1 [4]): 1.96 kcal/mol
- ITC ΔG (PDK1 [4]): -6.67 kcal/mol
- ITC ΔH (PDK1 [4]): -4.56 kcal/mol
- ITC ΔH/ΔG (PDK1 [4]): 68.3%
SMILES: O=C(O)/C=C(/CCc1ccc2ccccc2c1)c1ccccc1 [Compound 12Z]

- Amax (PDK1 [3]): 3.1 fold
- ITC Ka (PDK1 [4]): 9.63E4 — M^-1
- ITC TΔS (PDK1 [4]): 2.60 kcal/mol
- ITC ΔG (PDK1 [4]): -6.73 kcal/mol
- ITC ΔH (PDK1 [4]): -4.09 kcal/mol
- ITC ΔH/ΔG (PDK1 [4]): 60.8%
SMILES: O=C(O)/C=C(/CCc1c[nH]c2ccccc12)c1ccccc1 [Compound 13Z]

SMILES: O=C(NOC[C@@H](O)CO)c1ccc(F)c(F)c1Nc1ccc(I)cc1F [Compound 35]
- Sol (pH 6.5): 255, μg/mL

- In Vivo Plasma Concentration ([5]; 40 min): 5540 ± 233 ng/mL
- In Vivo Plasma Concentration ([5]; 180 min): 2540 ± 143 ng/mL
SMILES: CC(=O)NC1=NN(c2ccc(Cl)c(Cl)c2)CC1C (stereo not drawn) [Compound 45]

- Sol (pH 6.5): 190 μg/mL
SMILES: O=C(NOC[C@H](O)CO)c1ccc(F)c(F)c1Nc1ccc(I)cc1F [Mirdametinib]
